In patent publication US20210393633A1, “INHIBITORS OF HUMAN IMMUNODEFICIENCY VIRUS REPLICATION” (ViiV HEALTHCARE UK (NO.5) LIMITED, priority 2018, published 2021) one finds EC50 and CC50 data, which are given here for 11 compounds.

As usually defined, the EC50 is the concentration needed to bring the measured effect to its halfway point. A word on the CC50: it is the concentration that lowers cell viability or growth by half.

SMILES strings stand for the structures.

Data set [1] concerns recombinant NL4-3 virus (nef section replaced with Renilla luciferase gene) in MT-2 cells. Put plainly: HIV cell culture assay (antiviral activity, luciferase readout in infected MT-2 cells). Type of data set: cell-based. To be noted: NL43. As for the experimental part:
HIV cell culture assay—MT-2 cells, 293T cells and the proviral DNA clone of NL4-3 virus were obtained from the NIH AIDS Research and Reference Reagent Program. MT-2 cells were propagated in RPMI 1640 media supplemented with 10% heat inactivated fetal bovine serum (FBS), […]. The 293T cells were propagated in DMEM media supplemented with 10% heat inactivated FBS, […]. A recombinant NL4-3 proviral clone, in which a section of the nef gene was replaced with the Renilla luciferase gene, was used to make the reference virus used in these studies. The recombinant virus was prepared through transfection of the recombinant NL4-3 proviral clone into 293T cells using Transit-293 Transfection Reagent from Minis Bio LLC (Madison, Wis.). Supernatent was harvested after 2-3 days and the amount of virus present was titered in MT-2 cells using luciferase enzyme activity as a marker by measuring luciferase enzyme activity. Luciferase was quantitated using the EnduRen Live Cell Substrate from Promega (Madison, Wis.). Antiviral activities of compounds toward the recombinant virus were quantified by measuring luciferase activity in MT-2 cells infected for 4-5 days with the recombinant virus in the presence of serial dilutions of the compound.
The 50% effective concentration (EC5o) was calculated by using the exponential form of the median effect equation where (Fa)=1/[1+(ED50/drug conc.)m] (Johnson Va., Byington R T. Infectivity Assay. In Techniques in HIV Research. ed. Aldovini A, Walker B D. 71-76. New York: Stockton Press.1990). The 50% inhibitory concentration (EC50) was calculated by using the exponential form of the median effect equation where percent inhibition=1/[1 +(EC50/drug concentration)m], where m is a parameter that reflects the slope of the concentration-response curve.

A short description of data set [2]: Compound cytotoxicity, XTT-based colorimetric assay. Type of data set: cell-based. As to conditions: human; uninfected MT2 cells, day 4, XTT. The protocol:
Compound cytotoxicity and the corresponding CC50 values were determined using the same protocol as described in the antiviral assay except that uninfected cells were used. Cytotoxicity was assessed on day 4 in uninfected MT2 cells by using a XTT (2,3-bis[2-Methoxy-4-nitro-5-sulfophenyl]-2H-tetrazolium-5-carboxyanilide inner salt)-based colorimetric assay (Sigma-Aldrich, St Louis, Mo).
On the technique in general: Tetrazolium dyes change colour on reduction, which living cells bring about.

With `C[C@@H]1CC(c2ccc3c(=O)n(-c4ccc(Cl)c5c(NS(C)(=O)=O)nn(C)c45)c([C@H](Cc4cc(F)cc(F)c4)NC(=O)Cn4nc(C(F)F)c5c4C(F)(F)[C@@H]4C[C@H]54)nc3c2)=C[C@H](C)O1` (atropisomer, axis not shown; (P)) [Example 19, N—((S)-1-((3P)-3-(4-chloro-1-methyl-3-(methylsulfonamido)-1H-indazol-7-yl)-7-((2R,6S)-2,6-dimethyl-3,6-dihydro-2H-pyran-4-yl)-4-oxo-3,4-dihydroquinazolin-2-yl)-2-(3,5-difluorophenyl)ethyl)-2-((3bS,4aR)-3-(difluoromethyl)-5,5-difluoro-3b,4,4a,5-tetrahydro-1H-cyclopropa[3,4]cyclopenta[1,2-c]pyrazol-1-yl)acetamide], the EC50 in data set [1] turned out to be 0.08 nM. This compound also had a CC50 at 4 day in data set [2] of over 500 nM.

`O=C(Cn1nc(C(F)F)c2c1C(F)(F)[C@@H]1C[C@H]21)N[C@@H](Cc1cc(F)cc(F)c1)c1nc2cc(C3=CCOCC3)ccc2c(=O)n1-c1ccc(Cl)c2c(NS(=O)(=O)C3CC3)nn(CC(F)F)c12` [Example 16, N—((S)-1-((3P)-3-(4-chloro-3-(cyclopropanesulfonamido)-1-(2,2-difluoroethyl)-1H-indazol-7-yl)-7-(3,6-dihydro-2H-pyran-4-yl)-4-oxo-3,4-dihydroquinazolin-2-yl)-2-(3,5-difluorophenyl)ethyl)-2-((3bS,4aR)-3-(difluoromethyl)-5,5-difluoro-3b,4,4a,5-tetrahydro-1H-cyclopropa[3,4]cyclopenta[1,2-c]pyrazol-1-yl)acetamide]: the EC50 in data set [1] stood at 0.3 nM. The CC50 at 4 day in data set [2] is over 500 nM.

For `Cn1nc(NS(C)(=O)=O)c2c(Cl)ccc(-n3c([C@H](Cc4cc(F)cc(F)c4)NC(=O)Cn4nc(C(F)F)c5c4C(F)(F)[C@@H]4C[C@H]54)nc4cc(C5(C(F)(F)F)CC5)ccc4c3=O)c21` (atropisomer, axis not shown; (P)) [Example 27], the half-maximal effective concentration (EC50) in data set [1] worked out at 0.13 nM. In data set [2], this compound displayed a cytotoxic concentration (CC50) at 4 day of over 500 nM.

On to `Cn1nc(NS(C)(=O)=O)c2c(Cl)ccc(-n3c([C@H](Cc4cc(F)cc(F)c4)NC(=O)Cn4nc(C(F)F)c5c4C(F)(F)[C@@H]4C[C@H]54)nc4cc(C5=CCCCC5)ccc4c3=O)c21` (atropisomer, axis not shown; (P)) [Example 6, N—((S)-1-((3P)-3-(4-chloro-1-methyl-3-(methylsulfonamido)-1H-indazol-7-yl)-7-(cyclohex-1-en-1-yl)-4-oxo-3,4-dihydroquinazolin-2-yl)-2-(3,5-difluorophenyl)ethyl)-2-((3bS,4aR)-3-(difluoromethyl)-5,5-difluoro-3b,4,4a,5-tetrahydro-1H-cyclopropa[3,4]cyclopenta[1,2-c]pyrazol-1-yl)acetamide], for which, in data set [1], the concentration for a half-maximal effect (EC50) was determined as 1.32 nM. In addition, the CC50 at 4 day in data set [2] is over 1000 nM.

On to `Cn1nc(NS(C)(=O)=O)c2c(Cl)ccc(-n3c([C@H](Cc4cc(F)cc(F)c4)NC(=O)Cn4nc(C(F)F)c5c4C(F)(F)[C@@H]4C[C@H]54)nc4cc(Cc5ccccc5)ccc4c3=O)c21` (atropisomer, axis not shown; (P)) [Example 5, N—((S)-1-(7-benzyl-(3P)-3-(4-chloro-1-methyl-3-(methylsulfonamido)-1H-indazol-7-yl)-4-oxo-3,4-dihydroquinazolin-2-yl)-2-(3,5-difluorophenyl)ethyl)-2-((3bS,4aR)-3-(difluoromethyl)-5,5-difluoro-3b,4,4a,5-tetrahydro-1H-cyclopropa[3,4]cyclopenta[1,2-c]pyrazol-1-yl)acetamide], for which the EC50 in data set [1] worked out at 0.221 nM. In data set [2], the CC50 at 4 day is over 1000 nM.

For `Cn1nc(NS(C)(=O)=O)c2c(Cl)ccc(-n3c([C@H](Cc4cc(F)cc(F)c4)NC(=O)Cn4nc(C(F)F)c5c4C(F)(F)[C@@H]4C[C@H]54)nc4cc(CC5CC5)ccc4c3=O)c21` (atropisomer, axis not shown; (P)) [Example 12, N—((S)-1-((3P)-3-(4-chloro-1-methyl-3-(methylsulfonamido)-1H-indazol-7-yl)-7-(cyclopropylmethyl)-4-oxo-3,4-dihydroquinazolin-2-yl)-2-(3,5-difluorophenyl)ethyl)-2-((3bS,4aR)-3-(difluoromethyl)-5,5-difluoro-3b,4,4a,5-tetrahydro-1H-cyclopropal3,41cyclopenta[1,2-c]pyrazol-1-yl)acetamide], the EC50 in data set [1] came out at 0.142 nM. The compound also registered a CC50 at 4 day in data set [2] of over 1000 nM.

For `C[C@@H]1CC(c2ccc3c(=O)n(-c4ccc(Cl)c5c(NS(C)(=O)=O)nn(C)c45)c([C@H](Cc4cc(F)cc(F)c4)NC(=O)Cn4nc(C(F)F)c5c4C(F)(F)[C@@H]4C[C@H]54)nc3c2)C[C@H](C)O1` (stereo partly drawn) [Example 22, N-((1S)-1-((3P)-3-(4-chloro-1-methyl-3-(methylsulfonamido)-1H-indazol-7-yl)-7-((2R,6S)-2,6-dimethyltetrahydro-2H-pyran-4-yl)-4-oxo-3,4-dihydroquinazolin-2-yl)-2-(3,5-difluorophenyl)ethyl)-2-((3bS,4aR)-3-(difluoromethyl)-5,5-difluoro-3b,4,4a,5-tetrahydro-1H-cyclopropa[3,4]cyclopenta[1,2-c]pyrazol-1-yl)acetamide], the concentration giving a half-maximal response (EC50) in data set [1] was 0.082 nM. The same compound registered a CC50 at 4 day in data set [2] of over 500 nM.

As to `Cn1nc(NS(C)(=O)=O)c2c(Cl)ccc(-n3c([C@H](Cc4cc(F)cc(F)c4)NC(=O)Cn4nc(C(F)F)c5c4C(F)(F)[C@@H]4C[C@H]54)nc4cc(C5CCOCC5)ccc4c3=O)c21` (atropisomer, axis not shown; (P)) [Example 11, N—((S)-1-((3P)-3-(4-chloro-1-methyl-3-(methylsulfonamido)-1H-indazol-7-yl)-4-oxo-7-(tetrahydro-2H-pyran-4-yl)-3,4-dihydroquinazolin-2-yl)-2-(3,5-difluorophenyl)ethyl)-2-((3bS,4aR)-3-(difluoromethyl)-5,5-difluoro-3b,4,4a,5-tetrahydro-1H-cyclopropa[3,4]cyclopenta[1,2-c]pyrazol-1-yl)acetamide], in data set [1], the 50% effective concentration (EC50) was found to be 0.046 nM. The CC50 at 4 day in data set [2] was over 1000 nM.

Regarding `CC(C)=C(C)c1ccc2c(=O)n(-c3ccc(Cl)c4c(NS(C)(=O)=O)nn(C)c34)c([C@H](Cc3cc(F)cc(F)c3)NC(=O)Cn3nc(C(F)F)c4c3C(F)(F)[C@@H]3C[C@H]43)nc2c1` (atropisomer, axis not shown; (P)) [Example 7, N—((S)-1-((3P)-3-(4-chloro-1-methyl-3-(methylsulfonamido)-1H-indazol-7-yl)-7-(3-methylbut-2-en-2-yl)-4-oxo-3,4-dihydroquinazolin-2-yl)-2-(3,5-difluorophenyl)ethyl)-2-((3bS,4aR)-3-(difluoromethyl)-5,5-difluoro-3b,4,4a,5-tetrahydro-1H-cyclopropa[3,4]cyclopenta[1,2-c]pyrazol-1-yl)acetamide], the concentration for a half-maximal effect (EC50) in data set [1] turned out to be 0.386 nM. In data set [2], the CC50 at 4 day was over 1000 nM.

`CCCCCCCCc1ccc2c(=O)n(-c3ccc(Cl)c4c(NS(C)(=O)=O)nn(C)c34)c([C@H](Cc3cc(F)cc(F)c3)NC(=O)Cn3nc(C(F)F)c4c3C(F)(F)[C@@H]3C[C@H]43)nc2c1` (atropisomer, axis not shown; (P)) [Example 4, N—((S)-1-((3P)-3-(4-chloro-1-methyl-3-(methylsulfonamido)-1H-indazol-7-yl)-7-octyl-4-oxo-3,4-dihydroquinazolin-2-yl)-2-(3,5-difluorophenyl)ethyl)-2-((3bS,4aR)-3-(difluoromethyl)-5,5-difluoro-3b,4,4a, 5-tetrahydro-1H-cyclopropa[3, 4]cyclopenta [1,2-c]pyrazol-1-yl)acetamide]: in data set [1], the concentration for a half-maximal effect (EC50) is 3.9 nM. Besides, the CC50 at 4 day in data set [2] was over 1000 nM.

For `Cn1nc(NS(C)(=O)=O)c2c(Cl)ccc(-n3c([C@H](Cc4cc(F)cc(F)c4)NC(=O)Cn4nc(C(F)F)c5c4C(F)(F)[C@@H]4C[C@H]54)nc4cc(C(F)(F)C5CCC5)ccc4c3=O)c21` (atropisomer, axis not shown; (P)) [Example 25, N—((S)-1-((3P)-3-(4-chloro-1-methyl-3-(methylsulfonamido)-1H-indazol-7-yl)-7-(cyclobutyldifluoromethyl)-4-oxo-3,4-dihydroquinazolin-2-yl)-2-(3,5-difluorophenyl)ethyl)-2-((3bS,4aR)-3-(difluoromethyl)-5,5-difluoro-3b,4,4a,5-tetrahydro-1H-cyclopropa[3,4]cyclopenta[1,2-c]pyrazol-1-yl)acetamide], the half-maximal effective concentration (EC50) in data set [1] worked out at 0.75 nM. In data set [2], this compound had a CC50 at 4 day of over 500 nM.
